Laboratory results: US9090583B2, “Benzopyrone estrogen receptor regulator” (BEIJING SHENOGEN PHARMA GROUP LTD., priority 2010, dated 2015)
Read-outs that look alike come from different tables or passages of the source.

Assays:
[1] = tested on: MDA-MB-231 cells; assay: CellTiter-Glo Luminescent Cell Viability Assay on ER-negative breast cancer MDA-MB-231 cells; type: cell-based; settings: average ± standard deviation when tested more than 3 times, read-out: Inhibition of the viability of breast cancer cells, IC50
Procedure: A: In Vitro CellTiter-Glo® Luminescent Cell Viability Assay on ER-Negative Breast Cancer MDA-MB-231 Cells:
MDA-MB-231 cells were maintained at 37° C., under 5% CO2 atmosphere in DMEM containing 10% fetal calf serum. The cells were seeded on 96-well plate at a density of 6×10^3 cells per well. MDA-MB-231 cells were treated with a test compound dissolved in DMSO at the concentrations of zero, 0.3 μM, 0.5 μM, 1 μM, 2 μM, 3 μM, 5 μM, 10 μM, 20 μM, 30 μM, 50 μM and 100 μM for 72 hours. Treated cells were examined by CellTiter-Glo® Luminescent Cell Viability Assay Kit (Promega), and luminescence values were recorded with Envision.

[2] = tested on: MCF7 cells; assay: CellTiter-Glo Luminescent Cell Viability Assay on ER-positive breast cancer MCF-7 cells; type: cell-based, human; settings: average ± standard deviation when tested more than 3 times, read-out: Inhibition of the viability of breast cancer cells, IC50
From the text: B: In Vitro CellTiter-Glo® Luminescent Cell Viability Assay on ER-Positive Breast Cancer MCF-7 Cells:
MCF7 cells are breast cancer cell lines that highly express ER-66, ER-46 and ER-36. (Relevance of breast cancer cell lines as models for breast tumours: an update. Marc Lacroix, Guy Leclercq, Breast Cancer Research and Treatment (2004) 83, 249-289; Wang et al., Proc. Natl. Acad. Sci. U.S.A. 103:9063-9068 (2006)). MCF7 cells were obtained from ATCC and maintained in Dulbecco's Modified Eagles Medium (DMEM) and 10% fetal calf serum at 37° C., under 5% CO2 atmosphere. The cells were seeded on 96-well plate at a density of 6×10^3 cells per well. MCF7 cells were treated with a test compound dissolved in DMSO at the concentrations of zero, 0.3 μM, 0.5 μM, 1 μM, 2 μM, 3 μM, 5 μM, 10 μM, 20 μM, 30 μM, 50 μM and 100 μM for 72 hours. Treated cells were examined by CellTiter-Glo® Luminescent Cell Viability Assay Kit (Promega), and luminescence values were recorded with Envision.

Row | IC50 ([1]; Homo sapiens, MDA-MB-231, 72 h) [µM] | IC50 ([2]; Homo sapiens, MCF7, 72 h) [µM] | IC50 ([1]; 72 hours) [µM] | IC50 ([2]; 72 hours) [µM] | Molecule
1 | > 100 | 22.2 | – | – | COc1c(-c2ccco2)oc2c(CC=C(C)C)c(O)c(CC=C(C)C)c(O)c2c1=O [Compound 41, 2-(furan-2-yl)-5,7-dihydroxy-3-methoxy-6,8-di(3-methyl-2-buten-1-yl)-4H-benzopyran-4-one]
2 | – | – | > 100 | > 100 | COc1cc(-c2oc3c(CC=C(C)C)c(O)c(CC=C(C)C)c(O)c3c(=O)c2OC)ccc1F [Compound 9, 2-(4-fluoro-3-methoxyphenyl)-5,7-dihydroxy-3-methoxy-6,8-di(3-methyl-2-butylene-1-yl)-4H-benzopyran-4-one]
3 | > 100 | > 100 | – | – | COc1c(-c2ccnc(F)c2)oc2c(CC=C(C)C)c(O)c(CC=C(C)C)c(O)c2c1=O [Compound 51, 2-(2-fluoropyridin-4-yl)-5,7-dihydroxy-3-methoxy-6,8-di(3-methyl-2-buten-1-yl)-4H-benzopyran-4-one]
4 | – | – | 13.7 ± 1.99 | 27.4 | COc1c(-c2ccc3ccccc3c2)oc2c(CC=C(C)C)c(O)c(CC=C(C)C)c(O)c2c1=O [Compound 19, 2-(naphthalen-2-yl)-5,7-dihydroxy-3-methoxy-6,8-di(3-methyl-2-butylene-1-yl)-4H-benzopyran-4-one]
5 | – | – | 25.6 | 40.1 | COc1c(-c2ccc(C(C)C)cc2)oc2c(CC=C(C)C)c(O)c(CC=C(C)C)c(O)c2c1=O [Compound 17, 2-(4-isopropylphenyl)-5,7-dihydroxy-3-methoxy-6,8-di(3-methyl-2-butylene-1-yl)-4H-benzopyran-4-one]
6 | – | – | 22.7 | 35.4 | COc1c(-c2ccc(Cl)c(C(F)(F)F)c2)oc2c(CC=C(C)C)c(O)c(CC=C(C)C)c(O)c2c1=O [Compound 13, 2-(4-chloro-3-trifluoromethylphenyl)-5,7-dihydroxy-3-methoxy-6,8-di(3-methyl-2-butylene-1-yl)-4H-benzopyran-4-one]
7 | > 100 | 25.7 | – | – | COc1c(-c2cscn2)oc2c(CC=C(C)C)c(O)c(CC=C(C)C)c(O)c2c1=O [Compound 43, 2-(thiazol-4-yl)-5,7-dihydroxy-3-methoxy-6,8-di(3-methyl-2-buten-1-yl)-4H-benzopyran-4-one]
8 | – | 31.1 | > 100 | – | COc1c(-c2ccnn2C)oc2c(CC=C(C)C)c(O)c(CC=C(C)C)c(O)c2c1=O [Compound 45, 2-(1-methyl-1H-pyrazol-5-yl)-5,7-dihydroxy-3-methoxy-6,8-di(3-methyl-2-buten-1-yl)-4H-benzopyran-4-one]
9 | – | – | 77.2 | > 100 | 2-(piperazin-2-yl)-5,7-dihydroxy-3-methoxy-6,8-di(3-methyl-2-buten-1-yl)-4H-benzopyran-4-one [Compound 30]
10 | > 100 | 88.1 | – | – | COc1c(C2CCC2)oc2c(CC=C(C)C)c(O)c(CC=C(C)C)c(O)c2c1=O [Compound 35, 2-cyclobutyl-5,7-dihydroxy-3-methoxy-6,8-di(3-methyl-2-buten-1-yl)-4H-benzopyran-4-one]
11 | 20 | 34.4 | – | – | COc1c(-c2cncnc2)oc2c(CC=C(C)C)c(O)c(CC=C(C)C)c(O)c2c1=O [Compound 32, 2-(pyrimidin-5-yl)-5,7-dihydroxy-3-methoxy-6,8-di(3-methyl-2-buten-1-yl)-4H-benzopyran-4-one]
12 | 2.45 | 40.6 | – | – | COc1c(-c2ccc(S(C)(=O)=O)cc2)oc2c(CC=C(C)C)c(O)c(CC=C(C)C)c(O)c2c1=O [Compound 64, 2-(4-methanesulfonylphenyl)5,7-dihydroxy-3-methoxy-6,8-di(3-methyl-2-buten-1-yl)-4H-benzopyran-4-one]
13 | > 100 | > 100 | – | – | CC(C)=CCc1c(O)c(CC=C(C)C)c2oc(-c3ccc(F)cc3)cc(=O)c2c1O [Compound 89, 2-(4-fluorophenyl)-5,7-dihydroxy-6,8-di(3-methyl-2-buten-1-yl)-4H-benzopyran-4-one]
14 | – | – | 16.1 | > 100 | COc1c(-c2ccc(Cl)c(Cl)c2)oc2c(CC=C(C)C)c(O)c(CC=C(C)C)c(O)c2c1=O [Compound 12, 2-(3,4-dichlorophenyl)-5,7-dihydroxy-3-methoxy-6,8-di(3-methyl-2-butylene-1-yl)-4H-benzopyran-4-one]
15 | 8.34 ± 1.63 | 7.04 ± 1.43 | – | – | COc1c(-c2ccc(Cl)nc2)oc2c(CC=C(C)C)c(O)c(CC=C(C)C)c(O)c2c1=O [Compound 52, 2-(6-chloropyridin-3-yl)-5,7-dihydroxy-3-methoxy-6,8-di(3-methyl-2-buten-1-yl)-4H-benzopyran-4-one]
16 | 16.3 | > 100 | – | – | CC(C)=CCc1c(O)c(CC=C(C)C)c2oc(-c3ccc(C)cc3)cc(=O)c2c1O [Compound 87, 2-(4-methylphenyl)-5,7-dihydroxy-6,8-di(3-methyl-2-buten-1-yl)-4H-benzopyran-4-one]
17 | 21.4 | – | – | – | CC(C)=CCc1c(O)c(CC=C(C)C)c2oc(-c3ccc(F)cc3)c(O)c(=O)c2c1O [Compound 97, 2-(4-fluorophenyl)-3,5,7-trihydroxy-6,8-di(3-methyl-2-buten-1-yl)-4H-benzopyran-4-one]
18 | 43.5 | > 100 | – | – | COc1c(-c2nccn2C)oc2c(CC=C(C)C)c(O)c(CC=C(C)C)c(O)c2c1=O [Compound 47, 2-(1-methyl-1H-imidazol-2-yl)-5,7-dihydroxy-3-methoxy-6,8-di(3-methyl-2-buten-1-yl)-4H-benzopyran-4-one]
19 | 12.6 ± 2.4 | 10.4 ± 0.22 | – | – | COc1c(-c2cccc(F)c2)oc2c(CC=C(C)C)c(O)c(CC=C(C)C)c(O)c2c1=O [Compound 3, 2-(3-fluorophenyl)-5,7-dihydroxy-3-methoxy-6,8-di(3-methyl-2-buten-1-yl)-4H-benzopyran-4-one]
20 | 10.4 | > 100 | – | – | CC(C)=CCc1c(O)c(CC=C(C)C)c2oc(-c3ccc(Cl)c(F)c3)c(O)c(=O)c2c1O [Compound 96, 2-(3-fluoro-4-chlorophenyl)-3,5,7-trihydroxy-6,8-di(3-methyl-2-buten-1-yl)-4H-benzopyran-4-one]
21 | 21.5 | > 100 | – | – | CC(C)=CCc1c(O)c(CC=C(C)C)c2oc(-c3cccnc3)cc(=O)c2c1O [Compound 92, 2-(pyridin-3-yl)-5,7-dihydroxy-6,8-di(3-methyl-2-buten-1-yl)-4H-benzopyran-4-one]
22 | – | – | 12.6 | > 100 | COc1c(-c2ccc3c(c2)OCCO3)oc2c(CC=C(C)C)c(O)c(CC=C(C)C)c(O)c2c1=O [Compound 20, 2-(2,3-dihydrobenzo[b][1,4]dioxan-6-yl)-5,7-dihydroxy-3-methoxy-6,8-di(3-methyl-2-buten-1-yl)-4H-benzopyran-4-one]
23 | 27.5 | 15.6 | – | – | CC(C)=CCc1c(O)c(CC=C(C)C)c2oc(-c3ccc(F)c(F)c3)c(C)c(=O)c2c1O [Compound 93, 2-(3,4-difluorophenyl)-3-methyl-5,7-dihydroxy-6,8-di(3-methyl-2-buten-1-yl)-4H-benzopyran-4-one]
24 | 18.1 ± 4.3 | 13.2 | – | – | COc1c(-c2cccnc2)oc2c(CC=C(C)C)c(O)c(CC=C(C)C)c(O)c2c1=O [Compound 28, 2-(pyridin-3-yl)-5,7-dihydroxy-3-methoxy-6,8-di(3-methyl-2-buten-1-yl)-4H-benzopyran-4-one]
